Measurements reported in US10894788B2, “Inhibitors of cyclin-dependent kinases” (Kinnate Biopharma Inc., priority 2018, dated 2021).
Where two headings read alike, the source gives them in different places.

Molecular target: CDK12 wt/CycK (Homo sapiens (Human), UniProt Q9NYV4)
Test: Radiometric protein kinase assay (33PanQinase Activity Assay), Assay Condition A (thiol containing conditions)
Assay type: biochemical
Procedure: Example 1—Assay Condition A (Thiol Containing Conditions)
Objective: The IC50 profile of test compounds was determined using three protein kinases.
Test compounds: The compounds were provided as pre-weighed powders in vials. The compounds were dissolved to 1×10^−02M by adding DMSO. 100 μl of each of the resulting stock solutions were transferred into column 2 of four 96 well “master plates”.
Prior to testing, the 1×10^−02M stock solutions in column 2 of the master plates were subjected to a serial, semi-logarithmic dilution using 100% DMSO as a solvent. […] Column 1 and 7 were filled with 100% DMSO as controls. Subsequently, 2×10 μl from each well of the serial diluted copy plates were aliquoted with a 96 channel pipettor into two identical sets of “compound dilution plates”.
In the process, 90 μl H2O were added to each well of a set of compound dilution plates. To minimize potential precipitation, the H2O was added to each plate only a few minutes before the transfer of the compound solutions into the assay plates. Each plate was shaken thoroughly, resulting in a “compound dilution plate/10% DMSO”.
For the assays, 5 μl solution from each well of the compound dilution plates/10% DMSO were transferred into the assay plates. The final volume of the assay was 50 μl. All compounds were tested at 10 final assay concentrations in the range from 1×10^−04M to 3×10^−09M, in singlicate. The final DMSO concentration in the reaction cocktails was 1% in all cases.
Recombinant protein kinases: All protein kinases were expressed in Sf9 insect cells or in E. coli as recombinant GST-fusion proteins or His-tagged proteins, either as full-length or enzymatically active fragments. All kinases were produced from human cDNAs and purified by either GSH-affinity chromatography or immobilized metal. Affinity tags were removed from a number of kinases during purification. The purity of the protein kinases was examined by SDS-PAGE/Coomassie staining, the identity was checked by mass spectroscopy.
Protein kinase assay: A radiometric protein kinase assay (^33PanQinase® Activity Assay) was used for measuring the kinase activity of the three protein kinases. All kinase assays were performed in 96-well FlashPlates™ from PerkinElmer (Boston, Mass., USA) in a 50 μl reaction volume. The reaction cocktail was pipetted in four steps in the following order: • 20 μl of assay buffer (standard buffer) • 5 μl of ATP solution (in H2O) • 5 μl of test compound (in 10% DMSO) • 20 μl enzyme/substrate mix
The following amounts of enzyme and substrate were used per well:
The reaction cocktails were incubated at 30° C. for 60 minutes. The reaction was stopped with 50 μl of 2% (v/v) H3PO4, plates were aspirated and washed two times with 200 μl 0.9% (w/v) NaCl. Incorporation of ^33Pi was determined with a microplate scintillation counter (Microbeta, Wallac). All assays were performed with a BeckmanCoulter/SAGIAN™ Core System.
Evaluation of raw data: The median value of the counts in column 1 (n=8) of each assay plate was defined as “low control”. This value reflects unspecific binding of radioactivity to the plate in the absence of a protein kinase but in the presence of the substrate. The median value of the counts in column 7 of each assay plate (n=8) was taken as the “high control”, i.e. full activity in the absence of any inhibitor. The difference between high and low control was taken as 100% activity.
As part of the data evaluation the low control value from a particular plate was subtracted from the high control value as well as from all 80 “compound values” of the corresponding plate. The residual activity (in %) for each well of a particular plate was calculated by using the following formula: Res. Activity (%)=100×[(cpm of compound−low control)/(high control−low control)]
The residual activities for each concentration and the compound IC50 values were calculated using Quattro Workflow V3.1.1 (Quattro Research GmbH, Munich, Germany).

[1] = thiol containing conditions (1.2 mM DTT), ATP 0.3 μM, read-out: CDK12 IC50 Condition A

Chain of CDK12 wt/CycK (Q9NYV4 whole entry): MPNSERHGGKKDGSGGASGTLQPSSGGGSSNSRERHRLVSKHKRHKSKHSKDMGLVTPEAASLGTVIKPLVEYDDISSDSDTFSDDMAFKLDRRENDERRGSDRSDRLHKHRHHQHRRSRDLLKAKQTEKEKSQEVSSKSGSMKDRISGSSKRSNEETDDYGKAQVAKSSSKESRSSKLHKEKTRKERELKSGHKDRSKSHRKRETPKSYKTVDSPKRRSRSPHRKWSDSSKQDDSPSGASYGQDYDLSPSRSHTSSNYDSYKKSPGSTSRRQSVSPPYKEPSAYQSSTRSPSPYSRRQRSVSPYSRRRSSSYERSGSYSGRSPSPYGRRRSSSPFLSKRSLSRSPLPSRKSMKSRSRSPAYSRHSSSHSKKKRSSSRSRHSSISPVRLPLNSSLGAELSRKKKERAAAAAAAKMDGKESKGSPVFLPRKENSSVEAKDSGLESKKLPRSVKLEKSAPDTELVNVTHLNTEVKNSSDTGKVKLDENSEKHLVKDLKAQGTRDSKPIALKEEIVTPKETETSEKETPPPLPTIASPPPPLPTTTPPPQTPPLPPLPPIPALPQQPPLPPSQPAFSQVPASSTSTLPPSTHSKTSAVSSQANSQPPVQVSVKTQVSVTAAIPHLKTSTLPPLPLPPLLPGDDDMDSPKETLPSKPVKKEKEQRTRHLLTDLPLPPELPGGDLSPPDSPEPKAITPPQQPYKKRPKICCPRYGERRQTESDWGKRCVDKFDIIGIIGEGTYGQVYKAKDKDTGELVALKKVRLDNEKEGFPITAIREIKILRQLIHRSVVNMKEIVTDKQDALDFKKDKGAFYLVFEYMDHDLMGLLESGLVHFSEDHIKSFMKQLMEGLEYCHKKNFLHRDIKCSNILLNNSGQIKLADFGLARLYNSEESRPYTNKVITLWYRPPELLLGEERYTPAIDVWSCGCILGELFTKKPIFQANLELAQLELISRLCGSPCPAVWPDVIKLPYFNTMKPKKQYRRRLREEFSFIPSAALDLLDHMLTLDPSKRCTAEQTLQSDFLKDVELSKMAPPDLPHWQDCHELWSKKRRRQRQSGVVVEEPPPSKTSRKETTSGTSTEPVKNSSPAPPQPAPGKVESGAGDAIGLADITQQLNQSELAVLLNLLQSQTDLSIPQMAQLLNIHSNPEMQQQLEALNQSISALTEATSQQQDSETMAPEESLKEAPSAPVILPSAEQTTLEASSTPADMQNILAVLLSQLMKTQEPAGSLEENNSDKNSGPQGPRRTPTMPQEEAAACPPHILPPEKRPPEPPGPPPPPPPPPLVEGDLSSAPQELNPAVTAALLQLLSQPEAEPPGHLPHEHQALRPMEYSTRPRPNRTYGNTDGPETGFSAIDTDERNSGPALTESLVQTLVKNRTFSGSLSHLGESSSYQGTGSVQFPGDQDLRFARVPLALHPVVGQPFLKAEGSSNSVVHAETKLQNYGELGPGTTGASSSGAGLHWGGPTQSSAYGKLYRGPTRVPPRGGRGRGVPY
Chain of CDK12 wt/CycK (O75909 whole entry partner): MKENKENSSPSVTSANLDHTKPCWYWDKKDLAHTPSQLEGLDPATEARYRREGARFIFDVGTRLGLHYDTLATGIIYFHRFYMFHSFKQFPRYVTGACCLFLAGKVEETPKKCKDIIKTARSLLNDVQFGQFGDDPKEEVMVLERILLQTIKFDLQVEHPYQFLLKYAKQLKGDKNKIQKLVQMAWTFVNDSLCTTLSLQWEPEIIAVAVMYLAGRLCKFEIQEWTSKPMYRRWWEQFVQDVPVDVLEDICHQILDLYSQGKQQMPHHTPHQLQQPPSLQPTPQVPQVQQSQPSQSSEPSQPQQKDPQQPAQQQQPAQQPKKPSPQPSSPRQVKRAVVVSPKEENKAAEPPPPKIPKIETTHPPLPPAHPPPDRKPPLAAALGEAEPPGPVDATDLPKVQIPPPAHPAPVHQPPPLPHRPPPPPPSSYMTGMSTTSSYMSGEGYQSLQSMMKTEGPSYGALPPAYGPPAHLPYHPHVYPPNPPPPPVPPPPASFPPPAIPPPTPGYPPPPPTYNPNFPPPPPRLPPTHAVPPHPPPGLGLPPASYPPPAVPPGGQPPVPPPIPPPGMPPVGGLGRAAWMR

| SMILES | IC50 [1] | IC50 |
| --- | --- | --- |
| [2H]c1nc(N[C@@H]2CCN(C(=O)c3ccc(NC(=O)C=C)cc3)C2)nc(NC)c1Cl [Example 111, (R)—N-(4-(3-((5-chloro-4-deutero-6-(methylamino)pyrimidin-2-yl)amino)pyrrolidine-1-carbonyl)phenyl)acrylamide] | < 100 nM | – |
| C=CC(=O)Nc1ccc(C(=O)N2CC[C@@H](Nc3ncc(Cl)cn3)C2)cc1OCCN(C)C [Example 112, (R)—N-(4-(3-((5-chloropyrimidin-2-yl)amino)pyrrolidine-1-carbonyl)-2-(2-(dimethylamino)ethoxy)phenyl)acrylamide] | – | 100 to 1000 nM |
| [2H]C([2H])([2H])Oc1nc(N[C@@H]2CCN(C(=O)c3ccc(NC(=O)/C=C/CN(C)C)cc3)C2)ncc1Cl [Example 114, (R,E)-N-(4-(3-((5-chloro-4-(trideuteromethoxy)pyrimidin-2-yl)amino)pyrrolidine-1-carbonyl)phenyl)-4-(dimethylamino)but-2-enamide] | 100 to 1000 nM | – |
| COc1nc(N[C@@H]2CCN(C(=O)c3ccc(NC(=O)/C=C/CN(C)C)cc3)C2)ncc1Cl [Example 115, (R,E)-N-(4-(3-((5-chloro-4-methoxypyrimidin-2-yl)amino)pyrrolidine-1-carbonyl)phenyl)-4-(dimethylamino)but-2-enamide] | 100 to 1000 nM | – |
| O=C(c1cccc(N2C(=O)C=CC2=O)c1)N1CC[C@@H](Nc2ncc(Cl)cn2)C1 [Example 116, (R)-1-(3-(3-((5-chloropyrimidin-2-yl)amino)pyrrolidine-1-carbonyl)phenyl)-1H-pyrrole-2,5-dionefuran-2,5-dione] | 1000 to 10000 nM | – |
| COc1nc(N[C@@H]2CCN(C(=O)c3ccc(NC(=O)/C=C/CN(C)C)c(C)c3)C2)ncc1Cl [Example 117, (R,E)-N-(4-(3-((5-chloro-4-methoxypyrimidin-2-yl)amino)pyrrolidine-1-carbonyl)-2-methylphenyl)-4-(dimethylamino)but-2-enamide] | 100 to 1000 nM | – |
| C=CC(=O)Nc1ccc(C(=O)N2CC[C@@H](Nc3ncc(C(F)(F)F)c(N(C)C)n3)C2)cc1 [Example 118, (R)—N-(4-(3-((4-(dimethylamino)-5-(trifluoromethyl)pyrimidin-2-yl)amino)pyrrolidine-1-carbonyl)phenyl)acrylamide] | 10000 to 30000 nM | – |
| C=CC(=O)Nc1ccc(C(=O)N2CC[C@@H](Nc3ncc(Cl)c(OCC)n3)C2)cc1N1CCN(C)CC1 [Example 119, (R)—N-(4-(3-((5-chloro-4-ethoxypyrimidin-2-yl)amino)pyrrolidine-1-carbonyl)-2-(4-methylpiperazin-1-yl)phenyl)acrylamide] | 100 to 1000 nM | – |
| C=CC(=O)Nc1ccc(C(=O)N2CC[C@@H](Nc3ncc(C(F)(F)F)c(NC)n3)C2)cc1 [Example 120, (R)—N-(4-(3-((4-(methylamino)-5-(trifluoromethyl)pyrimidin-2-yl)amino)pyrrolidine-1-carbonyl)phenyl)acrylamide] | < 100 nM | – |
| C=CC(=O)Nc1ccc(C(=O)N2CC[C@@H](Nc3ncc(Cl)c(OCCOCC)n3)C2)cc1N1CCN(C)CC1 [Example 123, (R)—N-(4-(3-((5-chloro-4-(2-ethoxyethoxy)pyrimidin-2-yl)amino)pyrrolidine-1-carbonyl)-2-(4-methylpiperazin-1-yl)phenyl)acrylamide] | 100 to 1000 nM | – |
| C#CC(=O)Nc1ccc(C(=O)N2CC[C@@H](Nc3ncc(Cl)c(OC)n3)C2)cc1 [Example 124, (R)—N-(4-(3-((5-chloro-4-methoxypyrimidin-2-yl)amino)pyrrolidine-1-carbonyl)phenyl)propiolamide] | < 100 nM | – |
| C#CC(=O)Nc1ccc(C(=O)N2CC[C@@H](Nc3ncc(Cl)cn3)C2)cc1 [Example 125, (R)—N-(4-(3-((5-chloropyrimidin-2-yl)amino)pyrrolidine-1-carbonyl)phenyl)propiolamide] | < 100 nM | – |
| C=CC(=O)Nc1ccc(C(=O)N2CC[C@@H](Nc3ncc(Cl)cn3)C2)cc1N1CCC(N(C)C)C1 (stereo partly drawn) [Example 127, N-(4-((R)-3-((5-chloropyrimidin-2-yl)amino)pyrrolidine-1-carbonyl)-2-(3-(dimethylamino)pyrrolidin-1-yl)phenyl)acrylamide] | 100 to 1000 nM | – |
| [2H]C([2H])([2H])Oc1nc(N[C@@H]2CCN(C(=O)c3cccc(N4C(=O)C=CC4=O)c3)C2)ncc1Cl [Example 128, (R)-1-(3-(3-((5-chloro-4-(trideuteriomethoxy)pyrimidin-2-yl)amino)pyrrolidine-1-carbonyl)phenyl)-1H-pyrrole-2,5-dione] | 1000 to 10000 nM | – |
| C=CC(=O)N1CCc2ccc(C(=O)N3CC[C@@H](Nc4ncc(Cl)cn4)C3)cc2C1 [Example 130, (R)-1-(7-(3-((5-chloropyrimidin-2-yl)amino)pyrrolidine-1-carbonyl)-3,4-dihydroisoquinolin-2(1H)-yl)prop-2-en-1-one] | 100 to 1000 nM | – |
| C/C=C/C(=O)Nc1ccc(C(=O)N2CC[C@@H](Nc3ncc(Cl)cn3)C2)cc1 [Example 131, (R,E)-N-(4-(3-((5-chloropyrimidin-2-yl)amino)pyrrolidine-1-carbonyl)phenyl)but-2-enamide] | 100 to 1000 nM | – |
| C=CC(=O)N1CCc2cc(C(=O)N3CC[C@@H](Nc4ncc(Cl)cn4)C3)ccc2C1 [Example 132, (R)-1-(6-(3-((5-chloropyrimidin-2-yl)amino)pyrrolidine-1-carbonyl)-3,4-dihydroisoquinolin-2(1H)-yl)prop-2-en-1-one] | 1000 to 10000 nM | – |
| N#CCC(=O)Nc1ccc(C(=O)N2CC[C@@H](Nc3ncc(Cl)cn3)C2)cc1 [Example 133, (R)—N-(4-(3-((5-chloropyrimidin-2-yl)amino)pyrrolidine-1-carbonyl)phenyl)-2-cyanoacetamide] | 100 to 1000 nM | – |
| CN(C)/C=C(\C#N)C(=O)Nc1ccc(C(=O)N2CC[C@@H](Nc3ncc(Cl)cn3)C2)cc1 [Example 134, (R)—N-(4-(3-((5-chloropyrimidin-2-yl)amino)pyrrolidine-1-carbonyl)phenyl)-2-cyano-3-(dimethylamino)acrylamide] | 100 to 1000 nM | – |
| CN(C)C=C(C#N)C(=O)Nc1cccc(C(=O)N2CC[C@@H](Nc3ncc(Cl)cn3)C2)c1 [Example 135, (R)—N-(3-(3-((5-chloropyrimidin-2-yl)amino)pyrrolidine-1-carbonyl)phenyl)-2-cyano-3-(dimethylamino)acrylamide] | 1000 to 10000 nM | – |
| C=CC(=O)N1CCc2ccc(C(=O)N3CC[C@@H](Nc4ncc(Cl)cn4)C3)cc21 [Example 136, (R)-1-(6-(3-((5-chloropyrimidin-2-yl)amino)pyrrolidine-1-carbonyl)indolin-1-yl)prop-2-en-1-one] | 100 to 1000 nM | – |
| C=CC(=O)Nc1ccc(C(=O)N2CC[C@@H](Nc3ncc(Cl)c(OCCO)n3)C2)cc1 [Example 137, (R)—N-(4-(3-((5-chloro-4-(2-hydroxyethoxy)pyrimidin-2-yl)amino)pyrrolidine-1-carbonyl)phenyl)acrylamide] | < 100 nM | – |
| [2H]c1nc(N[C@@H]2CCN(C(=O)c3ccc(NC(=O)C=C)cc3)C2)nc(OC([2H])([2H])[2H])c1Cl [Example 138, (R)—N-(4-(3-((5-chloro-4-deutero-6-(trideuteromethoxy)pyrimidin-2-yl)amino)pyrrolidine-1-carbonyl)phenyl)acrylamide] | < 100 nM | – |
| O=C(c1ccc(N2C(=O)C=CC2=O)cc1)N1CC[C@@H](Nc2ncc(Cl)cn2)C1 [Example 140, (R)-1-(4-(3-((5-chloropyrimidin-2-yl)amino)pyrrolidine-1-carbonyl)phenyl)-1H-pyrrole-2,5-dione] | 1000 to 10000 nM | – |
| O=C(Nc1ccc(C(=O)N2CC[C@@H](Nc3ncc(Cl)cn3)C2)cc1)C1CO1 (stereo partly drawn) [Example 141, N-(4-((R)-3-((5-chloropyrimidin-2-yl)amino)pyrrolidine-1-carbonyl)phenyl)oxirane-2-carboxamide] | 1000 to 10000 nM | – |
